Converted amounts (≈) assume the structure as drawn. Like-named read-outs stand apart in the source and are kept apart here. Non-standard residues stand in square brackets, D forms with d. Residues, ends and D or L forms follow the SMILES beside them. d1Nal = N[C@H](Cc1cccc2ccccc12)C(=O)O
Key:
[1] = test system: Salmonella typhimurium TA98, TA100, TA1535, TA1537 and Escherichia coli WP2uvrA; assay: Ames test: Salmonella-Escherichia coli/mammalian-microsome reverse mutation assay; assay type: cell-based; details: with and without S9
Method: XMP.629 was evaluated in an initial mutagenicity assay. In this Salmonella-Escherchia coli/mammalian-microsome reverse mutation assay, XMP.629 was evaluated for the ability to induce reverse mutations at the histidine locus in four tester strains of Salmonella-typhimurium (TA98, TA100, TA1535 and TA1537) and at the tryptophan locus in Escherichia coli tester strain, WP2uvrA, in the presence or absence of an exogenous metabolic activation system ([…]). The experimental materials, methods and procedures were based on those described by Ames et al., 1975 (Mutat. Res. 31; 347-364) and Green and Muriel, 1976 (Mutat. Res. 38: 3-32). The assay design was based on the OECD Guideline 471, updated and adopted Jul. 21, 1997. Based on the results of an initial dose rangefinding study, XMP.629 was evaluated using (a) four standard Salmonella tester strains with the rat hepatic S9 (microsomal) fraction at doses of 1.00, 3.33, 10.0, 33.3, 66.7 and 100 μg/plate, and without S9 at doses of 1.00, 3.33, 10.0, 25.0, 33.3 and 66.7 μg/plate; and (b) tester strain WP2uvrA with S9 at doses of 3.33, 10.0, 33.3, 100, 250 and 333 μg/plate and without S9 at doses of 1.00, 3.33, 10.0, 33.3, 66.7 and 100 μg/plate. XMP.629 was re-evaluated in an independent confirmatory experiment under similar conditions at lower doses.
In addition, the test article was freely soluble at all doses evaluated with and without S9. […]

CHO cells = assay: CHO chromosomal aberration test; assay type: cell-based, Chinese Hamster; details: with and without metabolic activation
Method: XMP.629 was next evaluated for activity to induce chromosomal aberrations in cultured CHO cells with and without an exogenous metabolic activation system. […] The assay design for these chromosomal aberration studies was based on OECD Guideline 473, updated and adopted Jul. 21, 1997. XMP.629 was provided as a 20.0 mg/mL stock in 10 mM sodium acetate buffer (pH 6). This solution and its dilutions prepared in cell culture grade water were dosed at 10% vol/vol (100 pUL/mL). The vehicle control cultures were treated with 100 μL/mL of cell culture grade water. In the initial assay, the treatment period was for 3.0 hours with and without metabolic activation at various concentrations of XMP.629 (30, 60, 120, 240, 480, 686, 980, 1400 and 2000 μg/mL) and cultures were harvested 20.0 hours from the initiation of treatment. Those cultures that were treated with 30, 60 and 120 pg/mL were analyzed for chromosomal aberrations. No significant increase in cells with chromosomal aberrations, polyploidy or endoreduplication was observed. In a confirmatory assay that included lower doses, the treatment period was 20 hours without metabolic activation (3.75, 7.5,15, 30, 60, 90, 120, 160, 200 and 240 μg/mL) and 3 hours with metabolic activation (15, 30, 60, 90, 120, 160, 200, 240, 300 and 360 μg/mL). […]

[2] = test system: conscious telemetered cynomolgus monkeys; assay: Cardiovascular safety pharmacology test, intravenous infusion, telemetry; assay type: in vivo, cynomolgus monkey
Method: This safety pharmacology test was performed to assess the possible cardiovascular effects of XMP.629 when administered via intravenous infusion. The test was an acute experiment to identify single-dose-induced side-effects as indicated, for example, in the Guideline for General Pharmacology Studies (Japan Ministry of Health and Welfare PAB/NND Notification No. 4, Jan. 29, 1995, the disclosure of which is incorporated herein by reference).
A telemetry device/transmitter (Data Sciences, St. Paul, Minn.) was surgically implanted in the subcutaneous pocket over the mid-abdominal region into the test monkeys. The blood pressure catheter of the telemetry device was run sub-cutaneously to the left groin region and inserted into the left femoral artery, with the catheter tip placed into the abdominal aorta. In addition, electrocardiogram leads were sub-cutaneously tunneled to the appropriate anatomical regions (i.e. negative lead paced at the base of the right side of the neck and the positive lead placed within the 5th intercostals space on the left side of the thoracic cage, near the sternum).
Intravenous administration of XMP.629 was given to conscious cynomolgus primates (four males) via telemetry systems in a series of 4 acute experiments, in which escalating doses were administered over four days, with a 3 to 27-day washout period between doses. Doses were administered over a two-hour period, at a rate of 2 mL/kg/hr. The vehicle, 10 mM sodium acetate buffer, was administered on Day 0, and XMP.629 at dose levels of 5, 10, and 20 mg/kg/2 hrs on days 4, 7, and 34, respectively. The infused volume per dose was calculated using the most recent body weight measurements.
Viability checks were performed twice daily on the animals. Body weights were obtained from the animals on the day of surgery and one or two days prior to each dose. Cardiovascular assessments and body temperature measurements were collected radiotelemetrically using the implanted telemetry device/transmitter for one 24 hour period prior to the Day 0 dosing session at the same frequency/periods collected on the days of dosing. On each day of dosing, the effect of XMP.629 on various physiological parameters, such as blood pressure waveform, systolic pressure, diastolic pressure, mean pressure, ECG (axial lead) waveform, heart rate, body temperature, QA interval, P-R interval, QRS interval, QT interval, R—R interval, and QTC interval, was observed two hours before the dosing period, every five minutes for 120 minutes during each infusion period, and for 22 hours after termination of infusion (once every five minutes for one hour and then once every 30 minutes for the remaining 21 hours). […]

Staphylococcus aureus = details: for MBC: agent alone

Q: What does the source list for `CC(C)C[C@@H](NC(=O)[C@H](N)CCCCN)C(=O)N[C@H](Cc1ccccc1)C(=O)N[C@H](CCCNC(=N)N)C(=O)N[C@H](Cc1cccc2ccccc12)C(=O)N[C@H](CCC(N)=O)C(=O)N[C@H](C)C(=O)N[C@H](CCCCN)C(=O)N[C@H](Cc1cccc2ccccc12)C(N)=O` [XMP.629, NH2-lys-leu-phe-arg-(3-(1-naphthyl)-ala)-gln-ala-lys-(3-(1-naphthyl)-ala)-CONH2] (H-[dK][dL][dF][dR][d1Nal][dQ][dA][dK][d1Nal]-NH2)?
A: reverse mutation assay result [1]: negative; chromosomal aberrations in CHO cells (CHO cells): negative; Prolongation in prothrombin and activated partial thromboplastin times with decreases in fibrinogen ([2]; 20 mg/kg/2 hrs): 2 of 4 animals; heart rate, QA, P-R, QRS, and R-R intervals ([2]; 5, 10, or 20 mg/kg/2 hrs): no effects; cardiac findings ([2]; 10 or 20 mg/kg/2 hrs): ventricular extrasystoles and premature ventricular beats; intravenous infusion dose with no adverse, related-effect ([2]; cynomolgus monkey, in vivo, iv): 5 mg/kg/2 hrs; MBC (Staphylococcus aureus; Staphylococcus aureus 076U-550): 8 µg/mL (≈ 6.23 µM); MBC (Staphylococcus aureus; Staphylococcus aureus 230U-579): 8 µg/mL (≈ 6.23 µM); MBC (Staphylococcus aureus; Staphylococcus aureus 314U-148): 8 µg/mL (≈ 6.23 µM); XMP.629 MBC (Staphylococcus aureus; Staphylococcus aureus 342U-116, XMP.629 alone): 8 µg/mL; MBC (Staphylococcus aureus; Staphylococcus aureus 342U-116): 8 µg/mL (≈ 6.23 µM); MBC (Staphylococcus aureus; Staphylococcus aureus 15031-1857): 4 µg/mL (≈ 3.12 µM)
